According to patent publication US20240108740A1, “THERAPEUTIC COMPOSITIONS INCLUDING SPN10 AND USES THEREOF” (Stealth BioTherapeutics Inc., priority 2022, published 2024):
Residues, ends and D or L forms follow the SMILES beside them.

Assays:
[1] = tested on: acute myocardial infarction; assay: Infarct size at revascularization, given with cyclosporine; assay type: in vivo, human; conditions: along with cyclosporine at the time of reperfusion
Protocol: Study group. Men and women, 18 years of age or older, who present within 6 hours after the onset of chest pain, who have ST-segment elevation of more than 0.1 mV in two contiguous leads, and for whom the clinical decision is made to treat with percutaneous coronary intervention (PCI) will be eligible for enrollment. Patients are eligible for the study whether they are undergoing primary PCI or rescue PCI. Occlusion of the affected coronary artery (Thrombolysis in Myocardial Infarction (TIMI) flow grade 0) at the time of admission is also a criterion for inclusion. Angiography and Revascularization. […] Either separately or simultaneously, cyclosporine (final concentration, […] will be injected through the catheter. Normal saline (0.9% NaCl) will be used as a control. The patients in the control group receive an equivalent volume of normal saline. Infarct Size. The primary end point will be the size of the infarct as assessed by measurements of cardiac biomarkers. Blood samples are obtained at admission and repeatedly over the next 3 days. The area under the curve (AUC) (expressed in arbitrary units) for creatine kinase and troponin I release (Beckman kit) will be measured in each patient by computerized planimetry. […] The images are analyzed in short axis slices covering the entire left ventricle. […]

cell stress recovery = conditions: Mitchell et al., bioRxiv, cited from earlier work
mitochondrial aconitase = assay: Example 53: mitochondrial aconitase activity in burn injury; conditions: mouse, in vivo
Source text: Murine subjects will be subjected to burn injury or sham and administered peptide conjugates, aromatic-cationic peptides, SPN10(s) alone or in combination with aromatic-cationic peptides, or control vehicle as described above. Mitochondria will be isolated from burned and control tissues and mitochondrial aconitase activity assessed using a commercially available kit.

[2] = tested on: renal ischemia-reperfusion (IR) injury in rats; assay: Mitochondrial respiration and ATP synthesis after renal ischemia-reperfusion injury; assay type: in vivo, rat; conditions: 45 minutes renal artery occlusion, 20 minutes or 1 hour reperfusion
Protocol: Animals will be subjected to bilateral occlusion of renal artery for 45 minutes followed by 20 minutes or 1 hour of reperfusion. Subjects will receive saline vehicle, a peptide conjugate (2.0 mg/kg s.c.), an aromatic-cationic peptide (an equivalent molar dose of aromatic-cationic peptide based on concentration of the aromatic-cationic peptide administered in the peptide conjugate group) SPN10 (an equivalent molar dose of SPN10 based on concentration of SPN10 administered in the peptide conjugate group), or SPN10(s) in combination with aromatic-cationic peptides (e.g., an equivalent molar dose of SPN10 based on the concentration of SPN10 administered in the peptide conjugate treatment group and an equivalent molar dose of aromatic-cationic peptide based on the concentration of aromatic-cationic peptide administered in the peptide conjugate treatment group) 30 minutes before ischemia and again at the time of reperfusion (n=4-5 in each group). It is anticipated that the peptide conjugate, aromatic-cationic peptide or SPN10(s) (with or without aromatic-cationic peptides) will improve oxygen consumption and ATP synthesis.

Wild-type (WT) mice = assay: Example 2: acute cerebral ischemia (occlusion of the right middle cerebral artery); assay type: in vivo, mouse
Protocol: Cerebral ischemia will be induced by occlusion of the right middle cerebral artery for 30 min. Wild-type (WT) mice will be given either saline vehicle (Veh) (i.p., n=9), peptide conjugates (2 mg/kg or 5 mg/kg, i.p., n=6), aromatic-cationic peptides (e.g., an equivalent molar dose of aromatic-cationic peptide based on the concentration of the aromatic-cationic peptide administered in the peptide conjugate treatment group), SPN10(s) (e.g., an equivalent molar dose of SPN10 based on the concentration of SPN10 administered in the peptide conjugate treatment group), or SPN10(s) in combination with aromatic-cationic peptides (e.g., an equivalent molar dose of SPN10 based on the concentration of SPN10 administered in the peptide conjugate treatment group and an equivalent molar dose of aromatic-cationic peptide based on the concentration of aromatic-cationic peptide administered in the peptide conjugate treatment group) at 0, 6, 24 and 48 hours after ischemia. Mice will be sacrificed 3 days after ischemia. Brains will be frozen, sectioned, and stained using Nissl stain. Infarct volume and hemispheric swelling will be determined using an image analyzer. Data will be analyzed by one-way ANOVA with posthoc analysis.

N=C(N)NCCC[C@H](NC(=O)[C@@H](N)Cc1c[nH]c2ccccc12)C(=O)N[C@@H](Cc1c[nH]c2ccccc12)C(=O)N[C@@H](CCCCN)C(N)=O [SPN10, H-L-Trp-L-Arg-L-Trp-L-Lys-NH2] (H-WRWK-NH2)
infarct size versus placebo [1]: smaller infarct | potency in cell stress recovery (cell stress recovery; among SS-31, SS-20, SPN4, SPN10): greatest potency | performance compared with SS-31 (cell culture assays, structure-activity analysis) (cell stress recovery): consistently outperformed SS-31 | mitochondrial aconitase activity after burn injury (mitochondrial aconitase): reduce mitochondrial aconitase activity to sham control levels | oxygen consumption and ATP synthesis [2]: improve | depletion of GSH in the ipsilateral cortex (Wild-type (WT) mice; 2 mg/kg i.p. at 0, 6, 24 and 48 hours): significantly be reduced | infarct volume and hemispheric swelling (Wild-type (WT) mice; treatment at 0, 6, 24 and 48 hours after 30 minute occlusion, compared to saline): significant reduction in infarct volume and hemispheric swelling
